Data from publication PMC6599079 (Nature Communications, 2019).
Where two headings read alike, the source gives them in different places. Square brackets hold non-standard residues; d marks the D form. Ends that are not written are not given here. Met(O) = CS(=O)CC[C@H](N)C(=O)O

What was measured:
splenic CD8^+ T cells = type: in vivo, C57BL/6 mice; conditions: for IFNg#: spleen; for CTL response, ICS: file clean_CTLresponse_ICS_new, tissue not given
H-2K^b = biological target: T1, H-2K^b (Mus musculus, UniProt P01901); assay: biochemical; type: binding
T1 sequence (P01901 22-369): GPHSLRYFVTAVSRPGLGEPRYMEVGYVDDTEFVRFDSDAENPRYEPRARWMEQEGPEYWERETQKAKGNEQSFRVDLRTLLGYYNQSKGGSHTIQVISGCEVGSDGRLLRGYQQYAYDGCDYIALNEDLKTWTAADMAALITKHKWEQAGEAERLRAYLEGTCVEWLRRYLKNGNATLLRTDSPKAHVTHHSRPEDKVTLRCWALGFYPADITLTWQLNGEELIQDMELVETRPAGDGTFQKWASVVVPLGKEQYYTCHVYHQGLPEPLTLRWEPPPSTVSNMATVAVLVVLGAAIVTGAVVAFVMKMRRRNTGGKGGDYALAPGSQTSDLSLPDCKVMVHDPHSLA
T1 sequence (P01887 21-119 partner): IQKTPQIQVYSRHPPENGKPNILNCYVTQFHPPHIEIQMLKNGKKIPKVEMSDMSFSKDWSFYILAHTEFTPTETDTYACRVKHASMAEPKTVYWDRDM

H-2D^b = biological target: T2, H-2D^b (Mus musculus, UniProt P01899); assay: biochemical; type: binding
T2 sequence (P01899 25-362): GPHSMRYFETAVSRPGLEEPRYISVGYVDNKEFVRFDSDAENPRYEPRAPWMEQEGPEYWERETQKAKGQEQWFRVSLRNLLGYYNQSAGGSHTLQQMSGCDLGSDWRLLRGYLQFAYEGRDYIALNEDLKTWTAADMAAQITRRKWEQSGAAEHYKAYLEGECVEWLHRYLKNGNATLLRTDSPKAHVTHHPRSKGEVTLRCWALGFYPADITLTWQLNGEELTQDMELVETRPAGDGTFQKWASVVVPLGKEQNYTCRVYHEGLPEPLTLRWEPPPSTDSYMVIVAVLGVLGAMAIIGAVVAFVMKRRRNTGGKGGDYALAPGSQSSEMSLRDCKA
T2 sequence (P01887 21-119 partner): T1 sequence (P01887 21-119 partner)

[1] = biological target: H-2b MHC class I (allele not given); assay: Classical competition assay of peptide binding to purified MHC; restricting allele not printed in the epitope label of this file; design: species or system mouse; conditions: epitope label without allele; file clean_file9_IC50; unit inferred
[2] = 1st EXP, number of IFNg+ CD8 cells = IFNg% (w/o background) x CD8# 5103400, replicate Mouse 2
[3] = 1st EXP, number of IFNg+ CD8 cells = IFNg% (w/o background) x CD8# 5464800, replicate Mouse 3
[4] = 1st EXP, number of IFNg+ CD8 cells = IFNg% (w/o background) x CD8# 5668200, replicate Mouse 4
[5] = 1st EXP, number of IFNg+ CD8 cells = IFNg% (w/o background) x CD8# 5724000, replicate Mouse 5
[6] = 1st EXP, number of IFNg+ CD8 cells = IFNg% (w/o background) x CD8# 6077000, replicate Mouse 1
[7] = 2nd EXP, number of IFNg+ CD8 cells per spleen (CD8# 2541000), Mouse 5
[8] = 2nd EXP, number of IFNg+ CD8 cells per spleen (CD8# 2956300), Mouse 4
[9] = 2nd EXP, number of IFNg+ CD8 cells per spleen (CD8# 3816800), Mouse 1
[10] = 2nd EXP, number of IFNg+ CD8 cells per spleen (CD8# 4765200), Mouse 3
[11] = 2nd EXP, number of IFNg+ CD8 cells per spleen (CD8# 5219500), Mouse 2
[12] = 2nd EXP, number of IFNg+ CD8 cells per spleen (CD8# 5392600), Mouse 6
[13] = Measured IC50 of each peptide, H-2K^b
[14] = Measured IC50 of each peptide, H-2D^b
[15] = epitopes labelled Kb, file clean_file9_IC50, unit inferred, read-out: IC50

Row | Molecule | IC50 (H-2K^b; [13]) [nM] | IC50 (H-2D^b; [14]) [nM] | further results
1 | 2 (TLTSANHA[Met(O)]I) [compound 2] |  |  | IFNg# (splenic CD8^+ T cells; [2]): 1002.82; IFNg# (splenic CD8^+ T cells; [3]): 6300.91; IFNg# (splenic CD8^+ T cells; [4]): 49270.8; IFNg# (splenic CD8^+ T cells; [5]): 453.913; IFNg# (splenic CD8^+ T cells; [6]): 8544.26; IFNg# (splenic CD8^+ T cells; [7]): -2541; IFNg# (splenic CD8^+ T cells; [8]): 765.09; IFNg# (splenic CD8^+ T cells; [9]): 334.733; IFNg# (splenic CD8^+ T cells; [10]): 3334.69; IFNg# (splenic CD8^+ T cells; [11]): 2635.85; IFNg# (splenic CD8^+ T cells; [12]): -650.348
2 | 19 (CFKFDHL) [compound 19] |  |  | IFNg# (splenic CD8^+ T cells; [2]): 34310.2; IFNg# (splenic CD8^+ T cells; [3]): 27968.8; IFNg# (splenic CD8^+ T cells; [4]): 21326.6; IFNg# (splenic CD8^+ T cells; [5]): 46581.9; IFNg# (splenic CD8^+ T cells; [6]): 28197.3; IFNg# (splenic CD8^+ T cells; [7]): 17050.1; IFNg# (splenic CD8^+ T cells; [8]): 2143.61; IFNg# (splenic CD8^+ T cells; [9]): 22289; IFNg# (splenic CD8^+ T cells; [10]): 7728.2; IFNg# (splenic CD8^+ T cells; [11]): 8361.64; IFNg# (splenic CD8^+ T cells; [12]): 5535.5
3 | CC[C@H](C)[C@H](NC(=O)[C@H](CC(N)=O)NC(=O)[C@@H](N)CCSC)C(=O)N[C@@H](CCC(N)=O)C(=O)N[C@@H](Cc1ccccc1)C(=O)N[C@H](C(=O)N[C@@H](C)C(=O)N[C@H](C(=O)O)C(C)C)[C@@H](C)O [HA402–409] | 3 | 6180 | 
4 | CSCC[C@H](NC(=O)[C@@H](NC(=O)[C@H](CCC(=O)O)NC(=O)[C@H](CCSC)NC(=O)[C@H](CC(N)=O)NC(=O)[C@H](CCC(=O)O)NC(=O)[C@H](CC(N)=O)NC(=O)[C@H](CO)NC(=O)[C@H](C)N)[C@@H](C)O)C(=O)O [NP366–374] | > 40000 | 18 | 
5 | AGLKNDLLENL [M1_227–237] | 3310 | 5280 | 
6 | HA-41-49 (VTVTHSVNL) |  |  | IC50 [1]: 872 nM; CTL response, ICS (splenic CD8^+ T cells; Mouse1): 14900.8; CTL response, ICS (splenic CD8^+ T cells; Mouse2): 4695.13; CTL response, ICS (splenic CD8^+ T cells; Mouse3): 8913.09; CTL response, ICS (splenic CD8^+ T cells; Mouse4): 22267.5; CTL response, ICS (splenic CD8^+ T cells; Mouse5): 32844.3; CTL response, ICS (splenic CD8^+ T cells; Mouse11): 2884.36; CTL response, ICS (splenic CD8^+ T cells; Mouse12): 3836.33; CTL response, ICS (splenic CD8^+ T cells; Mouse13): 2696.15; CTL response, ICS (splenic CD8^+ T cells; Mouse14): 546.324; CTL response, ICS (splenic CD8^+ T cells; Mouse15): 0; CTL response, ICS (splenic CD8^+ T cells; Mouse16): 865.512
7 | IGRFYIQM [NP36–43] | 1.9 | 3300 | 
8 | KNMEYDAV [PB1_653–660] | 156 | > 40000 | 
9 | LSLRNPILV [PB1-F2_62–70] | 12400 | 18 | 
10 | MGLIYNRM [M1_128–135] | 92.6 | > 40000 | 
11 | NGITNKVNTVI [HA389–399] | 22000 | 118 | 
12 | RTFSFQLI [NS2_114–121] | 4.7 | > 40000 | 
13 | SFQDILLRM [NS2_8–16] | 185 | 10700 | 
14 | SGPDNGAVAV [NA181–190] | 262 | 65 | 
15 | SGPDNGAVAVL [NA181–191] | 585 | 64 | 
16 | SQLKNNAKEI [HA467–476] | > 40000 | 173 | 
17 | SSLENFRAYV [PA224–233] | 38 | 0.16 | 
18 | SSLENFRAYV [PA-224-233Db] |  |  | IC50 (H-2D^b; epitopes labelled Db, file clean_file9_IC50, unit inferred, read-out: IC50): 0.155 nM
19 | SSLPYQNI [HA304–311] | 4.7 | > 40000 | 
20 | SSYRRPVGI [PB1-703-711Kb] |  |  | IC50 (H-2K^b; [15]): 1.94 nM
21 | SSYRRPVGI [PB1_703–711] | 1.9 | 29000 | 
22 | VTVTHSVNL [HA41–49] | 7.9 | 872 | 
23 | VYIEVLHL [PB2-227-234Kb] |  |  | IC50 (H-2K^b; [15]): 2.77 nM
24 | VYIEVLHL [PB2_227–234] | 2.8 | 20900 | 
25 | YQNIHPVTI [HA308–316] | 1140 | 1970 | 
